Assay results published in ChEMBL document CHEMBL5614391, “GPX4 allosteric activators inhibit ferroptosis and exert myocardial protection in doxorubicin-induced myocardial injury mouse model” (Eur J Med Chem, 2024).

biological target: T1, Phospholipid hydroperoxide glutathione peroxidase GPX4 (Homo sapiens, UniProt P36969); test: Binding affinity to GPX4 (unknown origin) assessed as dissociation constant by surface plasmon resonance
T1 sequence (P36969 whole entry): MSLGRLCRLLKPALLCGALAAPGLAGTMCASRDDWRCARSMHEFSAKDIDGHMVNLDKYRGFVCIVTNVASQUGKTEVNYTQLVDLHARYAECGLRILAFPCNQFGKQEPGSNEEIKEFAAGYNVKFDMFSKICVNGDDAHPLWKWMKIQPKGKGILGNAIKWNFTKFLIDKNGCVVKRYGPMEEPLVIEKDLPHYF

| Kd [µM] | Structure (SMILES) |
| --- | --- |
| 5.69 | COc1ccc(NCc2cccn2-c2nnc(N3CCCCC3)s2)cc1OC |
| 27.1 | COc1ccc(NCc2cccn2-c2nnc(N3CCOCC3)s2)cc1OC |
| 10.5 | COc1ccc(NCc2cccn2-c2nnc(N3CCOCC3)s2)c(OC)c1 |
| 0.717 | COc1ccc(NCc2cccn2-c2nn3ccnc3s2)c(OC)c1 |
| 4.48 | COc1ccc(NCc2cccn2-c2nnc(C)s2)cc1OC |
| 5.22 | COc1ccc(NCc2cccn2-c2nnc(N(C)C)s2)cc1OC |
| 0.036 | CCCN1CCN(c2nnc(-n3cccc3CNc3ccc(OC)c(OC)c3)s2)CC1 |
| 0.931 | COc1ccc(NCc2cccn2-c2nnc(NC(=O)c3cccc(F)c3)s2)cc1OC |
| 5.86 | COc1ccc(NCc2cccn2-c2nnc(N3CCN(C)CC3)s2)cc1OC |
| 1.14 | COc1ccc(NCc2cccn2-c2ccc(Cl)cc2)cc1OC |
| 10.7 | CCOc1cc(NCc2cccn2-c2nnc(N3CCN(C)CC3)s2)ccc1OC |
| 1.05 | COc1ccc(NCc2cccn2-c2cccc(Cl)n2)cc1OC |
| 4.06 | COc1ccc(NCc2cc3ccccc3n2-c2nnc(N3CCN(C)CC3)s2)cc1OC |
| 0.835 | CN1CCN(c2nnc(-n3cccc3CNc3ccc4c(c3)OCCO4)s2)CC1 |
| 4.23 | COc1ccc(NCc2cccn2-c2nn3ccnc3s2)cc1OC |
| 9.8 | CCN(CC)c1nnc(-n2cccc2CNc2ccc(OC)c(OC)c2)s1 |
| 4.69 | COc1ccc(NCc2cccn2-c2nnc(NC(=O)c3ccc(F)cc3)s2)cc1OC |
| 4.99 | COc1ccc(NCc2cccn2-c2nc3ccccc3s2)cc1OC |
| 0.426 | COc1ccc(NCc2cccn2-c2nnc(N3CCN(C)CC3)s2)c(OC)c1 |
| 4.64 | COc1ccc(NCc2ccnn2-c2nnc(N3CCN(C)CC3)s2)cc1OC |
| 0.17 | COc1ccc(NCc2cccn2-c2nnc(N)s2)cc1OC |
| 10.5 | COc1ccc(NCc2cccn2-c2nnc(NC(=O)c3ccccc3F)s2)cc1OC |
| 6.9 | COc1ccc(NCc2cccn2-c2ccc(N3CCN(C)CC3)s2)cc1OC |
| 3.43 | COc1ccc(NCc2cncn2-c2nnc(N3CCN(C)CC3)s2)cc1OC |
| 8.24 | COc1ccc(NCc2cccn2-c2cnc(C)s2)cc1OC |
| 7.91 | COc1ccc(NCc2cccn2-c2nncs2)cc1OC |
| 2.1 | COc1ccc(NCc2cccn2-c2cccc(N3CCN(C)CC3)n2)cc1OC |
| 7.87 | COc1ccc(NCc2cccn2-c2nnc(N3CCN(C)CC3)s2)cc1 |
| 1.27 | COc1ccc(NCc2cccn2-c2nnc(NC(=O)c3ccccc3)s2)cc1OC |

system: HT-1080; test: Reversal of erastin induced cell death in human HT-1080 cells assessed as cell viability preincubated for 1 hr followed by erastin addition and measured after 24 hrs by CCK8 method

| Structure (SMILES) | EC50 [µM] |
| --- | --- |
| COc1ccc(NCc2cccn2-c2nnc(N3CCN(C)CC3)s2)cc1OC | 19.2 |
| COc1ccc(NCc2cccn2-c2nnc(N3CCN(C)CC3)s2)c(OC)c1 | 7.8 |
